Reference: PubChem BioAssay (NCI)
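GI50 marks 50% less growth. TGI is the concentration that stops growth completely.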

Experiments:
Experiment in all cases: NCI anticancer screen, dose series, 384-well format
K-562 leukemia = system: K-562 leukemia
LOX IMVI melanoma = system: LOX IMVI melanoma
A498 renal = system: A498 renal
SK-MEL-5 melanoma = system: SK-MEL-5 melanoma
TK-10 renal = system: TK-10 renal
HCC-2998 colon = system: HCC-2998 colon
KM12 colon = system: KM12 colon
NCI-H522 lung = system: NCI-H522 lung
CAKI-1 renal = system: CAKI-1 renal
SN12C renal = system: SN12C renal
A549 NSCLC = system: A549 NSCLC
CCRF-CEM leukemia = system: CCRF-CEM leukemia
RXF 393 renal = system: RXF 393 renal
COLO 205 colon = system: COLO 205 colon
T-47D breast = system: T-47D breast
NCI-H460 NSCLC = system: NCI-H460 NSCLC
RPMI-8226 leukemia = system: RPMI-8226 leukemia
SR leukemia = system: SR leukemia
IGROV1 ovarian = system: IGROV1 ovarian
U251 glioblastoma = system: U251 glioblastoma
786-0 renal = system: 786-0 renal
HL-60(TB) leukemia = system: HL-60(TB) leukemia
EKVX NSCLC = system: EKVX NSCLC
OVCAR-8 ovarian = system: OVCAR-8 ovarian
SF-539 CNS = system: SF-539 CNS
OVCAR-3 ovarian = system: OVCAR-3 ovarian
OVCAR-4 ovarian = system: OVCAR-4 ovarian
M14 melanoma = system: M14 melanoma
SNB-75 CNS = system: SNB-75 CNS
SK-MEL-28 melanoma = system: SK-MEL-28 melanoma
DU-145 prostate = system: DU-145 prostate
PC-3 prostate = system: PC-3 prostate
MALME-3M melanoma = system: MALME-3M melanoma
HOP-62 NSCLC = system: HOP-62 NSCLC
UACC-62 melanoma = system: UACC-62 melanoma
HCT-15 colon = system: HCT-15 colon
MDA-MB-468 breast = system: MDA-MB-468 breast
SK-OV-3 ovarian = system: SK-OV-3 ovarian
MDA-MB-231 breast = system: MDA-MB-231 breast
BT-549 breast = system: BT-549 breast
NCI-H322M lung = system: NCI-H322M lung
UACC-257 melanoma = system: UACC-257 melanoma
NCI-H226 lung = system: NCI-H226 lung
HT29 colon = system: HT29 colon
SW-620 colon = system: SW-620 colon
HCT-116 colon = system: HCT-116 colon
ACHN renal = system: ACHN renal

## C=CC(=O)Nc1cc(C)ccc1Nc1nc(Nc2cc(OC)ncc2C)ncc1C(F)(F)F
K-562 leukemia
  GI50: 1.52 µM
  TGI: > 100 µM
LOX IMVI melanoma
  GI50: 0.169 µM
  TGI: 0.423 µM
A498 renal
  GI50: 0.479 µM
  TGI: 1.9 µM
SK-MEL-5 melanoma
  GI50: 0.147 µM
  TGI: 1.97 µM
TK-10 renal
  GI50: 0.328 µM
  TGI: 0.884 µM
HCC-2998 colon
  GI50: 0.123 µM
  TGI: 0.376 µM
KM12 colon
  GI50: 0.444 µM
  TGI: > 100 µM
NCI-H522 lung
  GI50: 0.31 µM
  TGI: 1.48 µM
CAKI-1 renal
  GI50: 0.401 µM
  TGI: 1.44 µM
SN12C renal
  GI50: 0.321 µM
  TGI: 2.18 µM
A549 NSCLC
  GI50: 0.569 µM
  TGI: 2.05 µM
CCRF-CEM leukemia
  GI50: 1.71 µM
  TGI: 3.4 µM
RXF 393 renal
  GI50: 0.215 µM
  TGI: 0.766 µM
COLO 205 colon
  GI50: 0.0753 µM
  TGI: 1.12 µM
T-47D breast
  GI50: 0.813 µM
  TGI: 5.38 µM
NCI-H460 NSCLC
  GI50: 0.698 µM
  TGI: 2.72 µM
RPMI-8226 leukemia
  GI50: 0.232 µM
  TGI: 1.17 µM
SR leukemia
  GI50: 1.79 µM
  TGI: 3.18 µM
IGROV1 ovarian
  GI50: 0.233 µM
  TGI: 0.906 µM
U251 glioblastoma
  GI50: 0.951 µM
  TGI: 2.56 µM
786-0 renal
  GI50: 0.853 µM
  TGI: > 100 µM
HL-60(TB) leukemia
  GI50: 0.136 µM
  TGI: 1.07 µM
EKVX NSCLC
  GI50: 0.3 µM
  TGI: 1.62 µM
OVCAR-8 ovarian
  GI50: 1.12 µM
  TGI: 4.19 µM
SF-539 CNS
  GI50: 0.362 µM
  TGI: 1.55 µM
OVCAR-3 ovarian
  GI50: 0.447 µM
  TGI: 3.03 µM
OVCAR-4 ovarian
  GI50: 0.394 µM
  TGI: 7.5 µM
M14 melanoma
  GI50: 0.0355 µM
  TGI: 0.194 µM
SNB-75 CNS
  GI50: 0.336 µM
  TGI: 1.29 µM
SK-MEL-28 melanoma
  GI50: 0.0866 µM
  TGI: 0.387 µM
DU-145 prostate
  GI50: 0.865 µM
  TGI: 3.6 µM
PC-3 prostate
  GI50: 1.97 µM
  TGI: 99.7 µM
MALME-3M melanoma
  GI50: 0.0161 µM
  TGI: 0.0658 µM
HOP-62 NSCLC
  GI50: 0.725 µM
  TGI: 2.62 µM
UACC-62 melanoma
  GI50: 0.0599 µM
  TGI: 0.381 µM
HCT-15 colon
  GI50: 0.857 µM
  TGI: 9.3 µM
MDA-MB-468 breast
  GI50: 1.15 µM
  TGI: 2.57 µM
SK-OV-3 ovarian
  GI50: 0.621 µM
  TGI: 4.21 µM
MDA-MB-231 breast
  GI50: 0.283 µM
  TGI: 1.1 µM
BT-549 breast
  GI50: 0.3 µM
  TGI: 1.02 µM
NCI-H322M lung
  GI50: 0.57 µM
  TGI: 3.89 µM
UACC-257 melanoma
  GI50: 0.117 µM
  TGI: 0.39 µM
NCI-H226 lung
  GI50: 0.228 µM
  TGI: 1.81 µM
HT29 colon
  GI50: 0.34 µM
  TGI: 1.52 µM
SW-620 colon
  GI50: 0.405 µM
  TGI: 1.68 µM
HCT-116 colon
  GI50: 0.206 µM
  TGI: 0.562 µM
ACHN renal
  GI50: 0.374 µM
  TGI: 1.82 µM
